Measurements taken from ChEMBL document CHEMBL5518176, “Identification of novel aminopyrimidine derivatives for the treatment of mutant NSCLC” (Eur J Med Chem, 2024).
pIC50: −log10 of the molar value. Active and inactive are the calls of the source. No cut-off for these calls is given here.

How the values were obtained:
BaF3 [1] = test: Antiproliferative activity against mouse BaF3 cells harboring EGFR L858R/T790M/C797S triple mutant assessed as inhibition of cell growth incubated for 72 hrs by CellTiter-Glo luminescent assay; type: functional, cell-based; conditions: BaF3, 72 h
NCI-H1975 [2] = test: Antiproliferative activity against human NCI-H1975 cells harboring EGFR L858R/T790M double mutant assessed as inhibition of cell growth incubated for 72 hrs by MTT assay; type: functional, cell-based; conditions: NCI-H1975, 72 h
NCI-H1975 [3] = test: Antiproliferative activity against human NCI-H1975 cells harboring EGFR L858R/T790M/C797S triple mutant assessed as inhibition of cell growth incubated for 72 hrs by CellTiter-Glo luminescent assay; type: functional, cell-based; conditions: NCI-H1975, 72 h
A549 = test: Antiproliferative activity against human A549 cells assessed as inhibition of cell growth incubated for 72 hrs by MTT assay; type: functional, cell-based; conditions: A549, 72 h
NCI-H1975 [4] = test: Induction of apoptosis in human NCI-H1975 cells harboring EGFR L858R/T790M/C797S triple mutant assessed as necrotic cells at 1.5 uM incubated for 48 hrs by Annexin V-FITC/PI staining based flow cytometric analysis (reference value: 0.42 %); type: functional
NCI-H1975 [5] = test: Induction of apoptosis in human NCI-H1975 cells harboring EGFR L858R/T790M/C797S triple mutant assessed as early apoptotic cells at 1.5 uM incubated for 48 hrs by Annexin V-FITC/PI staining based flow cytometric analysis (reference value: 0.39 %); type: functional
NCI-H1975 [6] = test: Induction of apoptosis in human NCI-H1975 cells harboring EGFR L858R/T790M/C797S triple mutant assessed as necrotic cells at 0.4 uM incubated for 48 hrs by Annexin V-FITC/PI staining based flow cytometric analysis (reference value: 0.42 %); type: functional
NCI-H1975 [7] = test: Induction of apoptosis in human NCI-H1975 cells harboring EGFR L858R/T790M/C797S triple mutant assessed as viable cells at 1.5 uM incubated for 48 hrs by Annexin V-FITC/PI staining based flow cytometric analysis (reference value: 98.3 %); type: functional; conditions: read-out: Activity
[8] = Antiproliferative activity against human BEAS-2B cells assessed as inhibition of cell growth; type: toxicity, cell-based
NCI-H1975 [9] = test: Induction of cell cycle arrest in human NCI-H1975 cells harboring EGFR L858R/T790M/C797S triple mutant at 0.4 to 1.5 uM incubated for 48 hrs by flow cytometric analysis; type: functional, cell-based; conditions: dose 0.4-1.5 µM
BaF3 [10] = test: Antiproliferative activity against mouse BaF3 cells harboring wildtype EGFR assessed as inhibition of cell growth incubated for 72 hrs by CellTiter-Glo luminescent assay; type: functional, cell-based; conditions: BaF3, 72 h
NCI-H1975 [11] = test: Induction of apoptosis in human NCI-H1975 cells harboring EGFR L858R/T790M/C797S triple mutant assessed as viable cells at 0.4 uM incubated for 48 hrs by Annexin V-FITC/PI staining based flow cytometric analysis (reference value: 98.3 %); type: functional; conditions: read-out: Activity
NCI-H1975 [12] = test: Induction of apoptosis in human NCI-H1975 cells harboring EGFR L858R/T790M/C797S triple mutant assessed as late apoptotic cells at 0.8 uM incubated for 48 hrs by Annexin V-FITC/PI staining based flow cytometric analysis (reference value: 0.89 %); type: functional
NCI-H1975 [13] = test: Induction of apoptosis in human NCI-H1975 cells harboring EGFR L858R/T790M/C797S triple mutant assessed as necrotic cells at 0.8 uM incubated for 48 hrs by Annexin V-FITC/PI staining based flow cytometric analysis (reference value: 0.42 %); type: functional
NCI-H1975 [14] = test: Induction of apoptosis in human NCI-H1975 cells harboring EGFR L858R/T790M/C797S triple mutant assessed as late apoptotic cells at 1.5 uM incubated for 48 hrs by Annexin V-FITC/PI staining based flow cytometric analysis (reference value: 0.89 %); type: functional
NCI-H1975 [15] = test: Induction of apoptosis in human NCI-H1975 cells harboring EGFR L858R/T790M/C797S triple mutant assessed as viable cells at 0.8 uM incubated for 48 hrs by Annexin V-FITC/PI staining based flow cytometric analysis (reference value: 98.3 %); type: functional; conditions: read-out: Activity
NCI-H1975 [16] = test: Induction of apoptosis in human NCI-H1975 cells harboring EGFR L858R/T790M/C797S triple mutant assessed as early apoptotic cells at 0.8 uM incubated for 48 hrs by Annexin V-FITC/PI staining based flow cytometric analysis (reference value: 0.39 %); type: functional
NCI-H1975 [17] = test: Induction of apoptosis in human NCI-H1975 cells harboring EGFR L858R/T790M/C797S triple mutant assessed as late apoptotic cells at 0.4 uM incubated for 48 hrs by Annexin V-FITC/PI staining based flow cytometric analysis (reference value: 0.89 %); type: functional
NCI-H1975 [18] = test: Induction of apoptosis in human NCI-H1975 cells harboring EGFR L858R/T790M/C797S triple mutant assessed as early apoptotic cells at 0.4 uM incubated for 48 hrs by Annexin V-FITC/PI staining based flow cytometric analysis (reference value: 0.39 %); type: functional
BaF3 [19] = test: Antiproliferative activity against mouse BaF3 cells harboring EGFR Del19/T790M/C797S triple mutant assessed as inhibition of cell growth incubated for 72 hrs by CellTiter-Glo luminescent assay; type: functional, cell-based; conditions: BaF3, 72 h

Row | SMILES | pIC50 (BaF3 [1]) | pIC50 (NCI-H1975 [2]) | pIC50 (NCI-H1975 [3]) | pIC50 (A549) | pIC50 (BaF3 [19]) | other results
1 | COc1nccc(Nc2ccc(NC(=O)C(c3ccccc3)N3Cc4cc(-c5ccc(N6CCNCC6)cc5)ccc4C3=O)cc2)n1 (stereo not drawn) | 6.32 | 5.44 | 5.58 | 5.31 | – | –
2 | CN1CCN(c2ccc(-c3ccc4c(c3)CN([C@@H](C(=O)Nc3ccc(Nc5ccnc(N)n5)cc3)c3ccccc3)C4=O)cc2)CC1 | 6.38 | 5.53 | 6.09 | 5.29 | 6.39 | Activity (NCI-H1975 [4]): 0.73%; Activity (NCI-H1975 [5]): 1.83%; Activity (NCI-H1975 [6]): 0.51%; viability at 1.5 µM (NCI-H1975 [7]): 85.3%; pIC50 [8]: 5.29; Activity (NCI-H1975 [9]): inactive; pIC50 (BaF3 [10]): 6.39; viability at 0.4 µM (NCI-H1975 [11]): 97.3%; Activity (NCI-H1975 [12]): 11.16%; Activity (NCI-H1975 [13]): 0.69%; Activity (NCI-H1975 [14]): 12.15%; viability at 0.8 µM (NCI-H1975 [15]): 86.7%; Activity (NCI-H1975 [16]): 1.45%; Activity (NCI-H1975 [17]): 1.64%; Activity (NCI-H1975 [18]): 0.59%
3 | CN1CCN(c2ccc(-c3ccc4c(c3)CN(C(C(=O)Nc3ccc(Nc5ccnc(N)n5)cc3)c3ccccc3)C4=O)cc2)CC1 (racemic) | 6.16 | – | 5.78 | 4.91 | 6.21 | pIC50 (BaF3 [10]): 5.82
4 | Nc1nccc(Nc2ccc(NC(=O)C(c3ccccc3)N3Cc4ccccc4C3=O)cc2)n1 (stereo not drawn) | < 5.00 | < 4.70 | < 5.00 | < 4.70 | < 5.00 | –
5 | Nc1nccc(Nc2cccc(NC(=O)C(c3ccccc3)N3Cc4cc(-c5ccc(N6CCNCC6)cc5)ccc4C3=O)c2)n1 (stereo not drawn) | 5.84 | 5.49 | 5.38 | 5.66 | 6.05 | –
6 | C=CC(=O)Nc1cc(Nc2nccc(-c3cn(C)c4ccccc34)n2)c(OC)cc1N(C)CCN(C)C [OSIMERTINIB] | 5.95 | […] | […] | […] | 6.12 | pIC50 (BaF3 [10]): 8.05
7 | Nc1cc(Nc2ccc(NC(=O)C(c3ccccc3)N3Cc4cc(-c5ccc(N6CCNCC6)cc5)ccc4C3=O)cc2)ncn1 (stereo not drawn) | 5.40 | < 4.70 | < 5.00 | < 4.70 | 5.82 | –
8 | Nc1nccc(Nc2ccc(NC(=O)C(c3ccccc3)N3Cc4ccc(-c5ccc(N6CCNCC6)cc5)cc4C3=O)cc2)n1 (stereo not drawn) | 5.89 | 5.53 | 5.79 | 5.40 | 5.92 | –
9 | CCN(CC)c1ccc(-c2ccc3c(c2)CN(C(C(=O)Nc2ccc(Nc4ccnc(N)n4)cc2)c2ccccc2)C3=O)cc1 (racemic) | 5.92 | 4.94 | – | 4.80 | 5.92 | –
10 | Nc1nccc(Nc2ccc(NC(=O)C(c3ccccc3)N3Cc4cc(-c5ccc(N6CCNCC6)cc5)ccc4C3=O)cc2F)n1 (stereo not drawn) | 5.85 | 5.11 | 5.82 | 5.34 | 5.76 | –
11 | O=C(Nc1ccc(Nc2ccncc2)cc1)C(c1ccccc1)N1Cc2cc(-c3ccc(N4CCNCC4)cc3)ccc2C1=O (stereo not drawn) | 5.98 | 5.42 | 5.57 | 5.28 | – | –
